Source: patent US11944614B2, “Imidazo[4,5-c]pyridine compounds as LSD-1 inhibitors” (THE REGENTS OF THE UNIVERSITY OF MICHIGAN, priority 2018, dated 2024)

Molecular target: Human recombinant LSD1 protein (Homo sapiens (Human), UniProt O60341)
Assay: LSD1 enzymatic activity, AlphaLISA demethylation assay
Type: biochemical
Conditions: 4 nM LSD1, 80 nM Biotin-H3K4Me peptide substrate, 1% DMSO, 60 minutes reaction
Description: Human recombinant LSD1 protein expressed in E. coli cells was purchased from Active Motif (Carlsbad, Calif.). Biotin-labeled Histone H3K4Me peptide (residues 1-21 with Lys 4 monomethylated) substrate was purchased from Anaspec (Fremont, Calif.). Enzymatic activity was assessed using the AlphaLISA technology from Perkin Elmer Life Sciences (Waltham, Mass.). 2.5 μL of compound solution and 5 μL of LSD1 solutions in the assay buffer (50 mM Tris, pH 9.0, 50 mM NaCl with 0.01% Tween20 and 1 mM DTT added right before the assay) were added into a white low volume 384 well microtiter plate. This mixture solution was incubated for 15 minutes with gentle shaking at room temperature. Demethylation reaction was initiated by adding 2.5 μL of Biotin-H3K4Me peptide substrate solution in the assay buffer. Final concentrations of LSD1, Biotin-H3K4Me peptide substrate, and DMSO were 4 nM, 80 nM, and 1%, respectively. The reaction was allowed to proceed for 60 minutes in dark with gentle shaking at room temperature, after which 5 μL of Anti-H3K4 AlphaLISA acceptor beads in detection buffer from the manufacturer was added into the reaction mixture followed by incubation for 60 minutes. 10 μL of Streptavidin labeled AlphaLISA donor beads in detection buffer was added into the mixture followed by 30-minute incubation. Final acceptor and donor beads concentrations were both at 10 μg/mL. Plates were read on a BMG CLARIOStar multimode plate reader from BMG Labtech (Ortenberg, Germany) with an excitation wavelength of 680 nm and emission wavelength of 615 nm. IC50 values of inhibitors were obtained by fitting the fluorescence intensity vs inhibitor concentrations in a sigmoidal dose-response curve (variable slope) with a non-linear regression using Prism 7 (La Jolla, Calif.).

Row | Compound | IC50 [nM]
1 | CCn1ncc2cc(-c3ncc4c(ncn4CC4CCN(C)CC4)c3-c3ccc(C#N)c(F)c3)ccc21 [compound 4, 4-(6-(1-ethyl-1H-indazol-5-yl)-3-((1-methylpiperidin-4-yl)methyl)-3H-imidazo[4,5-c]pyridin-7-yl)-2-fluorobenzonitrile] | 372
2 | Cn1ncc2cc(-c3ncc4c(ncn4CC4CCNCC4)c3-c3ccc(C#N)c(F)c3)ccc21 [Cpd. No. 19, 2-fluoro-4-(6-(1-methyl-1H-indazol-5-yl)-3-(piperidin-4-ylmethyl)-3H-imidazo[4,5-c]pyridin-7-yl)benzonitrile] | 11.8
3 | CN1CCC(Cn2cnc3c(-c4ccc(C#N)c(F)c4)c(-c4ccc5c(cnn5C)c4)ncc32)CC1 [Cpd. No. 1, 2-fluoro-4-(6-(1-methyl-1H-indazol-5-yl)-3-((1-methylpiperidin-4-yl)methyl)-3H-imidazo[4,5-c]pyridin-7-yl)benzonitrile] | 40.1
4 | CN1CCOc2cc(-c3ncc4c(ncn4CC4CCCNCC4)c3-c3ccc(C#N)cc3)ccc21 (stereo not shown) [compound 24, 4-(3-(azepan-4-ylmethyl)-6-(4-methyl-3,4-dihydro-2H-benzo[b][1,4]oxazin-7-yl)-3H-imidazo[4,5-c]pyridin-7-yl)benzonitrile] | 11
5 | CN1CCOc2cc(-c3ncc4c(ncn4CC4CCNCC4)c3-c3ccc(C#N)cc3)ccc21 [compound 26, 4-(6-(4-methyl-3,4-dihydro-2H-benzo[b][1,4]oxazin-7-yl)-3-(piperidin-4-ylmethyl)-3H-imidazo[4,5-c]pyridin-7-yl)benzonitrile] | 14.7
6 | Cn1ccc2cc(-c3ncc4c(ncn4C[C@H]4CCNC4)c3-c3ccc(C#N)c(F)c3)cnc21 [compound 27, (S)-2-fluoro-4-(6-(1-methyl-1H-pyrrolo[2,3-b]pyridin-5-yl)-3-(pyrrolidin-3-ylmethyl)-3H-imidazo[4,5-c]pyridin-7-yl)benzonitrile] | 53.3
7 | N#Cc1ccc(-c2c(-c3ccc4c(c3)OCCO4)ncc3c2ncn3C[C@H]2CCNC2)cc1F [compound 28, (S)-4-(6-(2,3-dihydrobenzo[b][1,4]dioxin-6-yl)-3-(pyrrolidin-3-ylmethyl)-3H-imidazo[4,5-c]pyridin-7-yl)-2-fluorobenzonitrile] | 9.57
8 | Cn1ncc2cc(-c3ncc4c(ncn4CC4CCCNCC4)c3-c3ccc(C#N)c(F)c3)ccc21 (stereo not shown) [compound 21, 4-(3-(azepan-4-ylmethyl)-6-(1-methyl-1H-indazol-5-yl)-3H-imidazo[4,5-c]pyridin-7-yl)-2-fluorobenzonitrile] | 17.3
9 | CN1CCC(Cn2cnc3c(-c4ccc(C#N)c(F)c4)c(-c4ccc5c(ccn5C)c4)ncc32)CC1 [compound 2, 2-fluoro-4-(6-(1-methyl-1H-indol-5-yl)-3-((1-methylpiperidin-4-yl)methyl)-3H-imidazo[4,5-c]pyridin-7-yl)benzonitrile] | 237
10 | CN1CCOc2cc(-c3ncc4c(ncn4CC4CCCNCC4)c3-c3ccc(C#N)c(F)c3)ccc21 (stereo not shown) [compound 23, 4-(3-(azepan-4-ylmethyl)-6-(4-methyl-3,4-dihydro-2H-benzo[b][1,4]oxazin-7-yl)-3H-imidazo[4,5-c]pyridin-7-yl)-2-fluorobenzonitrile] | 13
